Reference: patent US20250210128A1, “COMPUTER-IMPLEMENTED DESIGN OF PEPTIDE:RECEPTOR SIGNALING COMPLEXES FOR ENHANCED CHEMOTAXIS” (Ecole Polytechnique Federale de Lausanne (EPFL), priority 2022, published 2025)

System: primary human T cells
Assay: Boyden chamber migration assay of T cells transduced with CXCR4 variants
Format: cell-based
Settings: 100 nM wild-type CXCL12 full-length chemokine
Protocol: T cells transduced and selected for CXCR4 variant expression from 3-6 donors were stained with 1 uM Vybrant DiO cell-labeling solution (Thermo, ref. V22886) in serum-free RPMI 1640+GlutaMax. 40,000 cells in 75 uL were seeded in each well of 96-well Boyden chambers with 5.0 μm pores (Corning, ref. 3388)^42. Reservoirs were filled with 200 uL serum-free RPMI 1640+GlutaMax or supplemented with 100 nM chemokine. The bottom of the attractant reservoir was imaged for migrated cells over the course of 8 hours with a Cytation 5 BioSpa (Biotek) at 37° C. with 5% CO2. Fluorescent spots were counted over time and compared to the no-chemokine control to calculate the migration index (#migrated cells towards attractant/#migrated cells towards no-attractant). The peak migration index was averaged between 3 technical replicates for each transduced donor per attractant concentration were plotted.

## WT CXCR4: wild-type human CXCR4 (SEQ ID NO: 1; with N-terminal 3xHA-tag SEQ ID NO: 2)
  migration (fold-migration over no-chemoattractant control): around 1.5 fold
